We go through 25 molecules from patent US9394297B2, “Amides as pim inhibitors” (AMGEN INC., priority 2012, dated 2016).

In one assay the target is Pim-1 (Homo sapiens (Human), UniProt P11309). Description: Pim-Mn enzyme assay (HTRF, 384-well), Pim-1. It counts as biochemical. As to conditions: read-out: Pim-1-Mn IC50 IP.
A further assay addresses Pim-2 (Homo sapiens (Human), UniProt Q9P1W9). As to the kind of experiment: Pim-Mn enzyme assay (HTRF, 384-well), Pim-2. It counts as biochemical. As to conditions: read-out: Pim-2-Mn IC50 IP. In general terms: In TR-FRET formats the signal depends on donor and acceptor labels being close together.
For a further assay, the system named is KMS-12-BM cell lines. Description: KMS12 #2 flow cytometry assay (phospho-BAD Ser112). Type of assay: cell-based. The note with it: Homo sapiens, 110 min; KMS-12-BM cells, pBAD Ser112 by flow cytometry, 110 min with compound; read-out: KMS-12-Flow IC50 IP.
Setting [1] is: Pim-1 enzyme 5 pM, ATP 1.5 μM, BAD (S112) 0.5 μM, HTRF, 22-point curve.
[2] abbreviates: Pim-2 enzyme 0.5 pM, ATP 1.5 μM, BAD (S112) 0.5 μM, HTRF, 22-point curve.

pIC50: −log10 of the molar value. Like-named read-outs stand apart in the source and are kept apart here.

Sequence of Pim-1 (P11309 whole entry): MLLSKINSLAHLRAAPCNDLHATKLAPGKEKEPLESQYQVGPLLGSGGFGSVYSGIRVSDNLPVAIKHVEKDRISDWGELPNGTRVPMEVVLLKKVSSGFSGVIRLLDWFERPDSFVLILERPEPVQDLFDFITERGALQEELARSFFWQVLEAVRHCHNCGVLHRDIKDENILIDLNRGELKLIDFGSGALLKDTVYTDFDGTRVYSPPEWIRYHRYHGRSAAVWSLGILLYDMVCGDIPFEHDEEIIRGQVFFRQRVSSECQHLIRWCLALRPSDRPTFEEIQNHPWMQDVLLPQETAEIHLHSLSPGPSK
Sequence of Pim-2 (Q9P1W9 whole entry): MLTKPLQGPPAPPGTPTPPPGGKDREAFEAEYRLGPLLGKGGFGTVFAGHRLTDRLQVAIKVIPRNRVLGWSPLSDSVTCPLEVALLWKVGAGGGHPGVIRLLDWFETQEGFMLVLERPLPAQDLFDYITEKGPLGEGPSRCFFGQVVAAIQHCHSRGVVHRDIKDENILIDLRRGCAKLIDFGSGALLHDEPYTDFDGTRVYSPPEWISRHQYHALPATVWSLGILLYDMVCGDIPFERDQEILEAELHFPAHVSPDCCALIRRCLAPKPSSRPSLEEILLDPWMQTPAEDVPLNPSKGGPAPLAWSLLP

Broadly, the pIC50 is −log10 of the IC50, conventionally taken in molar units. Consider `C[C@H]1NC(=O)c2cc(-c3cccc4c(=O)n(C)c(NC5(C)CCC5)nc34)[nH]c21` [Example 465, 3-methyl-2-((1-methylcyclobutyl)amino)-8-((6R)-6-methyl-4-oxo-1,4,5,6-tetrahydropyrrolo[3,4-b]pyrrol-2-yl)-4(3H)-quinazolinone], for which the negative logarithm of the IC50 (pIC50) at Pim-1 (setting [1]) is 10.13; on Pim-2 (setting [2]), 9.89; with KMS-12-BM cell lines, 7.46.
Consider `CC(C)(C)Nc1nc2c(-c3cc4c([nH]3)CCNC4=O)cccc2c(=O)n1-c1cccnc1` [Example 404, 2-(tert-butylamino)-8-(4-oxo-4,5,6,7-tetrahydro-1H-pyrrolo[3,2-c]pyridin-2-yl)-3-(3-pyridinyl)-4(3H)-quinazolinone], for which the values for the pIC50 at Pim-1 (setting [1]), at Pim-2 (setting [2]) and in the assay on KMS-12-BM cell lines were 8.82, 8.59 and 6.18, respectively.
Take `CCC(C)(C)Nc1nc2c(-c3cc4c([nH]3)CCNC4=O)c(F)ccc2nc1C` [Example 375, 2-(6-fluoro-2-methyl-3-(tert-pentylamino)quinoxalin-5-yl)-6,7-dihydro-1H-pyrrolo[3,2-c]pyridin-4(5H)-one]: the pIC50 is 9.59 on Pim-1 (setting [1]), 9.56 on Pim-2 (setting [2]) and 6.92 in the assay with KMS-12-BM cell lines.
`Cc1nc2cccc(-c3cc4c([nH]3)CCNC4=O)c2nc1NC(C)c1ccccn1` (stereo not drawn) [Example 321, 2-(2-methyl-3-((1-(pyridin-2-yl)ethyl)amino)quinoxalin-5-yl)-6,7-dihydro-1H-pyrrolo[3,2-c]pyridin-4(5H)-one]: the pIC50 at Pim-1 (setting [1]) is 7.01; on Pim-2 (setting [2]), 6.81; in the assay with KMS-12-BM cell lines, under 4.40.
In the case of `CC(C)(C)Nc1nc2c(-c3cc4c([nH]3)CCNC4=O)cccc2nc1CO` [Example 306, 2-(3-(tert-butylamino)-2-(hydroxymethyl)quinoxalin-5-yl)-6,7-dihydro-1H-pyrrolo[3,2-c]pyridin-4(5H)-one], the pIC50 on Pim-1 (setting [1]) was 8.67; on Pim-2 (setting [2]) it was 8.65; in the assay with KMS-12-BM cell lines, 6.25.
Consider `Cc1nc2cccc(-c3cc4c([nH]3)CCNC4=O)c2nc1NC(C)c1cnccn1` (stereo not drawn) [Example 322, 2-(2-methyl-3-((1-(pyrazin-2-yl)ethyl)amino)quinoxalin-5-yl)-6,7-dihydro-1H-pyrrolo[3,2-c]pyridin-4(5H)-one], for which the pIC50 on Pim-1 (setting [1]) was 7.02; at Pim-2 (setting [2]), 6.79; in the assay with KMS-12-BM cell lines it was under 4.40.
In the same order, the values of `Cc1nc2ccc(F)c(-c3cc4c([nH]3)CCNC4=O)c2nc1NC(C)C` [Example 373, 2-(6-fluoro-3-(isopropylamino)-2-methylquinoxalin-5-yl)-6,7-dihydro-1H-pyrrolo[3,2-c]pyridin-4(5H)-one 2,2,2-trifluoroacetate] are 8.74, 8.79 and 7.03.
Taken in the same sequence, the figures for `CC(C)(C)Nc1nc2c(-c3cc4c([nH]3)CCNC4=O)cccc2nc1Cl` [Example 345, 2-(3-(tert-butylamino)-2-chloro-5-quinoxalinyl)-1,5,6,7-tetrahydro-4H-pyrrolo[3,2-c]pyridin-4-one] were 9.00, 8.65 and 5.56.
With `Cc1nc2cccc(-c3cc4c([nH]3)CCNC4=O)c2nc1N[C@H]1C[C@H](O)C1` [Example 442, 2-(3-((trans-3-Hydroxycyclobutyl)amino)-2-methylquinoxalin-5-yl)-6,7-dihydro-1H-pyrrolo[3,2-c]pyridin-4(5H)-one], the negative-log IC50 (pIC50) on Pim-1 (setting [1]) was 8.47; on Pim-2 (setting [2]), 8.76; in the assay with KMS-12-BM cell lines it was 6.28.
On to `Cc1nc2ccc(F)c(-c3cc(C(N)=O)c(C)[nH]3)c2nc1NC1(C)CC1` [Example 417, 5-(6-fluoro-2-methyl-3-((1-methylcyclopropyl)amino)quinoxalin-5-yl)-2-methyl-1H-pyrrole-3-carboxamide], for which the pIC50 at Pim-1 (setting [1]) is 8.54; on Pim-2 (setting [2]), 8.45; in the assay on KMS-12-BM cell lines it was 6.55.
Taken in the same sequence, the figures for `Cc1nc2cccc(-c3cc4c([nH]3)[C@@H](C)NC4=O)c2nc1NC1(C)CC1` [Example 333, (6R)-6-methyl-2-(2-methyl-3-((1-methylcyclopropyl)amino)-5-quinoxalinyl)-5,6-dihydropyrrolo[3,4-b]pyrrol-4(1H)-one] were 9.73, 9.74 and 8.07.
Taken in the same sequence, the figures for `Cc1nc2cccc(-c3c[nH]c(C(N)=O)c3)c2nc1NC(C)(C)C` [Example 420, 4-(3-(tert-butylamino)-2-methyl-5-quinoxalinyl)-1H-pyrrole-2-carboxamide] were 7.58, 7.46 and 5.04.
For `CC(C)(C)Nc1nc2c(-c3cc4c([nH]3)CCNC4=O)cccc2nc1F` [Example 343, 2-(3-(tert-butylamino)-2-fluoro-5-quinoxalinyl)-1,5,6,7-tetrahydro-4H-pyrrolo[3,2-c]pyridin-4-one], the pIC50 was 8.63 on Pim-1 (setting [1]), 8.56 on Pim-2 (setting [2]) and 5.75 in the assay on KMS-12-BM cell lines.
On to `Cc1nc2cccc(-c3cc4c([nH]3)C3(CC3)NC4=O)c2nc1NC1(C)CC1` [Example 329, 2′-(2-methyl-3-((1-methylcyclopropyl)amino)-5-quinoxalinyl)-1′H-spiro[cyclopropane-1,6′-pyrrolo[3,4-b]pyrrol]-4′(5′H)-one], for which the figures for the negative logarithm of the IC50 (pIC50) at Pim-1, at Pim-2 and in the assay on KMS-12-BM cell lines were 9.48, 9.41 and 7.58, respectively.
As to `COC1=NCCc2[nH]c(-c3cccc4nc(C)c(NC(C)(C)C)nc34)cc21` [Example 351, N-tert-butyl-8-(4-methoxy-6,7-dihydro-1H-pyrrolo[3,2-c]pyridin-2-yl)-3-methyl-2-quinoxalinamine], the results for the negative-log IC50 (pIC50) at Pim-1 (setting [1]), at Pim-2 (setting [2]) and with KMS-12-BM cell lines were 8.03, 8.05 and 5.63, respectively.
For `Cc1nc2cccc(-c3cc4c([nH]3)CCNC4=O)c2nc1-c1ccccc1` [Example 424, 2-(2-Methyl-3-phenylquinoxalin-5-yl)-6,7-dihydro-1H-pyrrolo[3,2-c]pyridin-4(5H)-one], the negative logarithm of the IC50 (pIC50) at Pim-1 (setting [1]) was 7.08; on Pim-2 (setting [2]), 7.09; in the assay with KMS-12-BM cell lines, under 4.40.
Taken in the same sequence, the figures for `Cc1nc2cccc(-c3cc4c([nH]3)CCNC4=O)c2nc1-c1ccncc1Cl` [Example 411, 2-(3-(3-chloro-4-pyridinyl)-2-methyl-5-quinoxalinyl)-1,5,6,7-tetrahydro-4H-pyrrolo[3,2-c]pyridin-4-one] were 7.18, 6.62 and under 4.40.
In the same order, the values of `CC(C)Nc1nc2c(-c3cc4c([nH]3)CCNC4=O)cccc2c(=O)n1-c1ccccn1` [Example 415, 2-((1-methylethyl)amino)-8-(4-oxo-4,5,6,7-tetrahydro-1H-pyrrolo[3,2-c]pyridin-2-yl)-3-(2-pyridinyl)-4(3H)-quinazolinone] are 7.96, 7.53 and 5.23.
In the same order, the values of `Cc1nc2ccc(F)c(-c3cc4c([nH]3)[C@@H](C)NC4=O)c2nc1NC1(C)CC1` [Example 379, (R)-2-(6-fluoro-2-methyl-3-((1-methylcyclopropyl)amino)quinoxalin-5-yl)-6-methyl-5,6-dihydropyrrolo[3,4-b]pyrrol-4(1H)-one] are 10.42, 10.32 and 7.95.
Consider `Cc1nc2cccc(-c3[nH]c4c(c3Cl)C(=O)NC4)c2nc1NC1(C)CC1` [Example 358, 3-Chloro-2-(2-methyl-3-((1-methylcyclopropyl)amino)quinoxalin-5-yl)-5,6-dihydropyrrolo[3,4-b]pyrrol-4(1H)-one], for which the negative-log IC50 (pIC50) was 10.47 at Pim-1 (setting [1]), 10.11 at Pim-2 (setting [2]) and 7.30 with KMS-12-BM cell lines.
In the same order, the values of `CC(C)(C)Nc1nc2c(-c3cc4c([nH]3)CCNC4=O)cccc2nc1N1CC(O)C1` [Example 346, 2-(3-(tert-butylamino)-2-(3-hydroxy-1-azetidinyl)-5-quinoxalinyl)-1,5,6,7-tetrahydro-4H-pyrrolo[3,2-c]pyridin-4-one] are 8.39, 7.97 and 5.95.
In the same order, the values of `Cc1nc2cccc(-c3cc4c([nH]3)C(CO)NC4=O)c2nc1NC1(C)CC1` (stereo not drawn) [Example 360, 6-(hydroxymethyl)-2-(2-methyl-3-((1-methylcyclopropyl)amino)quinoxalin-5-yl)-5,6-dihydropyrrolo[3,4-b]pyrrol-4 (1H)-one] are 8.85, 8.86 and 7.05.
Consider `Cc1nc2cccc(-c3cc4c([nH]3)CCN(C(=O)OC(C)(C)C)C4=O)c2nc1NC(C)(C)C` [Example 291, tert-butyl 2-(3-(tert-butylamino)-2-methylquinoxalin-5-yl)-4-oxo-6,7-dihydro-1H-pyrrolo[3,2-c]pyridine-5(4H)-carboxylate], for which the pIC50 was 7.00 at Pim-1 (setting [1]), 7.19 on Pim-2 (setting [2]) and 5.10 in the assay with KMS-12-BM cell lines.
For the molecule `CC(C)Nc1nc2c(-c3cc4c([nH]3)CCNC4=O)cccc2c(=O)n1-c1cccnc1` [Example 403, 2-((1-methylethyl)amino)-8-(4-oxo-4,5,6,7-tetrahydro-1H-pyrrolo[3,2-c]pyridin-2-yl)-3-(3-pyridinyl)-4(3H)-quinazolinone], the values for the pIC50 on Pim-1 (setting [1]), on Pim-2 (setting [2]) and with KMS-12-BM cell lines were 7.94, 7.79 and under 4.40, respectively.
Taken in the same sequence, the figures for `Cc1nc2cccc(-c3cc4c([nH]3)CCNC4=O)c2nc1N[C@H]1C[C@@H](NCCS(C)(=O)=O)C1` [Example 441, 2-(2-Methyl-3-((cis-3-((2-(methylsulfonyl)ethyl)amino)cyclobutyl)amino)quinoxalin-5-yl)-6,7-dihydro-1H-pyrrolo[3,2-c]pyridin-4(5H)-one] were 9.15, 8.89 and under 4.40.
